Experiments:
[1] = system: c-Jun in non-transformed HEK298 epithelial cells; assay: c-Jun T 91/93 phosphorylation in non-transformed cells; assay type: cell-based; conditions: data not shown
Procedure: Phosphorylation at T 91/93 in c-Jun was measured as a function of total c-Jun. Significant phosphorylation at T 91/93 was observed which has been reported to be associated with the activation of c-Jun's pro-apoptotic activity.

[2] = system: LGR5 and BMI1 in Panc-1 cells; assay: qPCR of stem cell markers LGR5 and BMI1 in Panc-1 cells; assay type: cell-based, human; conditions: 10 μm
Procedure: QPCR: To compare the mRNA levels of BMI1 and LGR5 target genes in Panc-1 cells treated with BCN057 or vehicle. Quantitative PCR (qPCR) was used to measure the expression of the stem cell markers LGR5, and BMI1 which was detected by real-time PCR using the primer pairs listed in Table 1. Total RNA was extracted using TRIzol kit (Invitrogen, CA, USA)
Primers used for qPCR of LGR5 and BMI1 in pancreatic cancer cells Panc-1 treated with 10 μM of BCN057 or vehicle.
Others have implemented BMI1 as a key contributor to chemoresistance and invasiveness which is measurable in Panc-1.

[3] = system: PTEN; assay: Western blot of PTEN protein expression in Panc-1 cells; assay type: cell-based, human; conditions: 10 μM, 20 minutes to 24 hours
Procedure: Western Blot: Cells were harvested and lysed in cell lysis buffer on ice for 15 minutes and the lysate was centrifuged at 13,000 rpm at 4° C. for 10 minutes. The supernatant was transferred into a new tube for BCA protein quantification assay (Thermo Fisher Scientific) and the samples were normalized. 3× loading buffer (Cell Signaling) was added the protein sample and boiled for 5 minutes. The samples were used for SDS-PAGE analysis and transferred to nitrocellulose membrane. The membrane was blocked with 5% BSA at room temperature for 1 hour and incubated with primary antibody at 4° C. overnight. The membrane was washed with 1×TBST 5 minutes for 3 times and incubated with horseradish peroxidase-conjugated secondary antibody for 1 hour at room temperature. The protein was visualized by SuperSignal West Pico Stable Peroxide Solution (Thermo Fisher Scientific). The blot was visualized by chemiluminescence using a BioRad Versadoc Imaging System. In KRAS dependent tumors, c-Jun acts to suppress Phosphatase and tensin homolog (PTEN) expression at the promoter level and that suppression of PTEN expression is essential for anti-apoptosis and cellular transformation by oncogenic RAS. Thus, we investigated PTEN expression levels in response to BCN057. […] FIG. 4A is a western blot of Phospho-c-Jun (T-91/93). […] Phosphorylation of c-Jun at T-91/93 is known to induce apoptosis. […]

[4] = system: KRASG13R mutant MC38 tumor cell line; conditions: cited from earlier work
[5] = system: Bax, BCl-2, Akt-1 and Caspase-3 in Panc-1 cells; assay: qPCR of pro apoptosis and anti-apoptosis markers; assay type: cell-based, human; conditions: 1-hour post treatment
From the text: FIG. 2C is a histogram of the results of qPCR analysis of pro apoptosis and anti-apoptosis markers in Panc-1 cells.

[6] = target: T1, GSK3b (Homo sapiens, UniProt P49841); assay: Western blot of GSK3b phosphorylation at S-9 in Panc1 cells; assay type: cell-based; conditions: 10 μM BCN057, over time
T1 construct: endogenous in cells; host or cells: Panc-1
T1 sequence (P49841 whole entry): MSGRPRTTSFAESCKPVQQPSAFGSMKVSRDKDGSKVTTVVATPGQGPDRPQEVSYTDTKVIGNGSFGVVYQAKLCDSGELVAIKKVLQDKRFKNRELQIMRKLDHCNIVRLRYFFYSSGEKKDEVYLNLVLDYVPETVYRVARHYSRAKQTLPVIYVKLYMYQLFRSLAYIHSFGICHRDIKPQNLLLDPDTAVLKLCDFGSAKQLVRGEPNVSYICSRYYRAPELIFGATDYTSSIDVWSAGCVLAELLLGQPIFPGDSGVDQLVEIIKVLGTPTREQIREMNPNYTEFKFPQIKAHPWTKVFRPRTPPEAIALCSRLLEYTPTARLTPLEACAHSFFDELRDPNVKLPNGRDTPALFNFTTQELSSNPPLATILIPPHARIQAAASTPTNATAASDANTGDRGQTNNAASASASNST
Procedure: Western Blot: Cells were harvested and lysed in cell lysis buffer on ice for 15 minutes and the lysate was centrifuged at 13,000 rpm at 4° C. for 10 minutes. The supernatant was transferred into a new tube for BCA protein quantification assay (Thermo Fisher Scientific) and the samples were normalized. 3× loading buffer (Cell Signaling) was added the protein sample and boiled for 5 minutes. The samples were used for SDS-PAGE analysis and transferred to nitrocellulose membrane. The membrane was blocked with 5% BSA at room temperature for 1 hour and incubated with primary antibody at 4° C. overnight. The membrane was washed with 1×TBST 5 minutes for 3 times and incubated with horseradish peroxidase-conjugated secondary antibody for 1 hour at room temperature. The protein was visualized by SuperSignal West Pico Stable Peroxide Solution (Thermo Fisher Scientific). The blot was visualized by chemiluminescence using a BioRad Versadoc Imaging System.
To investigate the role BCN057 may have in the restoration of apoptosis in this cell line, the GSK3b-c-Jun relationship was assessed as it has been directly linked to apoptosis. Others have reported a link with GSK3b and c-Jun and apoptosis along with the fact that […] is over expressed in the oncogenic KRAS phenotype.

[7] = system: PDL-1 expression on Panc-1 cells; assay: Western blot of PDL-1 on Panc-1 cells co-cultured with T-lymphocytes; assay type: cell-based, human; conditions: co-culture, 2.5, 5, 7.5 and 10 hrs
Procedure: Cell lines and cell culture: Panc-1 cells were cultured in DMEM medium supplemented with 10% Fetal Bovine Serum and maintained at 37° C.5% CO2. Human Peripheral Blood Pan-T Cells were cultured in serum free T cells expansion media with 10 ng/ml of rhIL-2, T-cell activator and expanded as per the manufacturer instructions. Panc-1 cells and T-Cells were grown and expanded separately in T75 flasks. For co-culture experiments with Panc-1 cell, 2.5 million T-cells per well were plated in the well using a 6 well plate. 2.5 million Panc-1 Cells were plated in the thinsert which was placed into the well of the 6 well plate in order to have the cells physically separated but share media. The cells were incubated for 24 hours at 37° C., 5% CO2. At 24 hours the media was replaced with media containing vehicle, or 10 uM BCN057 and were incubated for the following timepoints: 1 hr, 6 hr, 12 hr, 24 hrs. The Panc-1 cells were removed by gently scraping the cells from the thinsert.
Western Blot: Cells were harvested and lysed in cell lysis buffer on ice for 15 minutes and the lysate was centrifuged at 13,000 rpm at 4° C. for 10 minutes. The supernatant was transferred into a new tube for BCA protein quantification assay (Thermo Fisher Scientific) and the samples were normalized. 3× loading buffer (Cell Signaling) was added the protein sample and boiled for 5 minutes. […]

Q: With COc1ccc2cc(-c3nc4ccc(C)cn4c3NCc3ccco3)c(=O)[nH]c2c1 [BCN057, 3-[(Furan-2-ylmethyl)-amino]-2-(7-methoxy-2-oxo-1,2-dihydro-quinolin-3-yl)-6-methyl-imidazo[1,2-a]pyridin-1-ium] as the compound, how does the “c-Jun pro-apoptotic activity (T 91/93 phosphorylation)” value [1] read?
A: The value was “not found to be induced”.

Q: What about the “Abundance of LGR5 and BMI1 cell populations” value [2] of the same compound?
A: The value was “no significant increase in the abundance”.

Q: And the PTEN protein expression [3]?
A: Its PTEN protein expression is “increased expression up to 1 hr of PTEN protein”.

Q: What about the Tolerated radiation dose ([4]; BCN057 with radiation treatment versus radiation alone) of the same compound?
A: Its Tolerated radiation dose is “able to tolerate much higher radiation doses”.

Q: What about the Tumor burden ([4]; mice receiving BCN057 versus control) of the same compound?
A: Its Tumor burden is “significantly lower tumor burden than control”.

Q: And the Akt-1 expression [5]?
A: Its Akt-1 expression is “did not affect”.

Q: What about the Bax gene expression [5] of the same compound?
A: The Bax gene expression was “induces expression”.

Q: What about the Bcl2 gene expression [5] of the same compound?
A: The Bcl2 gene expression was “inhibited”.

Q: And the Caspase-3 expression [5]?
A: The Caspase-3 expression was “did not affect”.

Q: And the “GSK3b phosphorylation at S-9” value [6]?
A: The value was “rapid induction of phosphorylation at S-9”.

Q: What about the “PDL-1 expression on Panc-1 cells” value [7] of the same compound?
A: The value was “not appreciably changed”.

Reference: patent US20240376098A1, “METHODS OF TREATMENT USING BCN057, BCN077 AND ANALOGS” (BCN Biosciences L.L.C., priority 2021, published 2024)
